Values of other authors as cited in patent USRE37771E1, “Purification of cinnamoyl-C-glycoside chromone” (Univera Pharmaceuticals, Inc., priority 1996, dated 2002).

Legend:
[1] = in vivo assays; details in related U.S. application Ser. No. 08/391,139
epithelial cell lines = conditions: in vitro, details in related U.S. application Ser. No. 08/391,139

COc1cc(C)c2c(=O)cc(CC(C)O)oc2c1C1OC(CO)C(O)C(O)C1OC(=O)/C=C/c1ccccc1 [540 compound, 8-C-β-D-[2′-O-(E)-cinnamoyl]glycopyranosyl-2-[(S)-2-hydroxy]propyl-7-methoxy-5-methylchromone]
anti-inflammatory activity [1]: potent anti-inflammatory activity | inhibition of EGF-induced DNA synthesis (epithelial cell lines): inhibit EGF-induced DNA synthesis
